In patent US12594277B2, “Macrocyclic ULK1/2 inhibitors” (SALK INSTITUTE FOR BIOLOGICAL STUDIES, priority 2020, dated 2026) one finds IC50 data, which are given here for ten compounds.

Assay [1] deals with T1, recombinant human ULK1 protein (1-649) (Homo sapiens, UniProt O75385).
T1 construct: recombinant human ULK1 protein (1-649, SignalChem #U01-11G); purchased SignalChem U01-11G
T1 sequence (O75385 1-649): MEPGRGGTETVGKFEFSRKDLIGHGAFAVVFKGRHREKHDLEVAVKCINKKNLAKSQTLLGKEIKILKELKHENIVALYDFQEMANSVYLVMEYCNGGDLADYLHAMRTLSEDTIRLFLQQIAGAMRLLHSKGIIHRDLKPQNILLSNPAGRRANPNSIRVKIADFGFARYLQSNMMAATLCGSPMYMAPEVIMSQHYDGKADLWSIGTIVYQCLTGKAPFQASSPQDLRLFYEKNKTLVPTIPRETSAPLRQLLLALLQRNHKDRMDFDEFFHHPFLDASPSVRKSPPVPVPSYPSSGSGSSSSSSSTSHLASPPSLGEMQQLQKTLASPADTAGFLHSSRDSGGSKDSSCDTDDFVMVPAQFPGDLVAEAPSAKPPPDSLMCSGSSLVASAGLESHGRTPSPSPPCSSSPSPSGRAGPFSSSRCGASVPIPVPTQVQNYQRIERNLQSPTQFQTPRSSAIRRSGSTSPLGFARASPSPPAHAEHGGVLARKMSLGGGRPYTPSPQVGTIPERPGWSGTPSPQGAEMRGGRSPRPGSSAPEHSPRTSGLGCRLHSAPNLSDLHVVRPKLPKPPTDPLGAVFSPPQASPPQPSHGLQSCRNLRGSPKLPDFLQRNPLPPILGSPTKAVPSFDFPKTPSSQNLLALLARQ
Kind of assay: ULK1 inhibition assay (ADP-Glo). In kind it is biochemical. The note with it: 2 ug/mL ULK1, 80 ug/mL myelin basic protein, 25 uM ATP, assessed after one hour. The method, then: IC50s measured by ADP-Glo assay are represented nM, with A representing IC50<20 nM, B representing IC50>20 nM. NT indicates the compound was not tested. ULK1 inhibition assays were performed in a 5 uL reaction volume containing 2 ug/mL recombinant human ULK1 protein (1-649, SignalChem #U01-11G) and 80 ug/mL myelin basic protein (MBP, Sigma-Aldrich #M1891) in the presence of 25 uM ATP (Sigma-Aldrich A7699). ULK 1 inhibition was assessed after one hour. Compounds were tested in triplicate in a 16-dose IC50 mode with 3-fold serial dilution and a starting dose of 30 uM. Staurosporine, a non-selective protein kinase inhibitor, was used in the assay as a positive control. Three separate experiments were carried out.
Background: ADP-Glo first removes unused ATP, then detects ADP through luciferase.

In assay [2] the target is T2, NanoLuc-ULK1 fusion in HEK293T cells (Homo sapiens, UniProt O75385).
T2 construct: host or cells: HEK293T
T2 sequence (O75385 1-1050): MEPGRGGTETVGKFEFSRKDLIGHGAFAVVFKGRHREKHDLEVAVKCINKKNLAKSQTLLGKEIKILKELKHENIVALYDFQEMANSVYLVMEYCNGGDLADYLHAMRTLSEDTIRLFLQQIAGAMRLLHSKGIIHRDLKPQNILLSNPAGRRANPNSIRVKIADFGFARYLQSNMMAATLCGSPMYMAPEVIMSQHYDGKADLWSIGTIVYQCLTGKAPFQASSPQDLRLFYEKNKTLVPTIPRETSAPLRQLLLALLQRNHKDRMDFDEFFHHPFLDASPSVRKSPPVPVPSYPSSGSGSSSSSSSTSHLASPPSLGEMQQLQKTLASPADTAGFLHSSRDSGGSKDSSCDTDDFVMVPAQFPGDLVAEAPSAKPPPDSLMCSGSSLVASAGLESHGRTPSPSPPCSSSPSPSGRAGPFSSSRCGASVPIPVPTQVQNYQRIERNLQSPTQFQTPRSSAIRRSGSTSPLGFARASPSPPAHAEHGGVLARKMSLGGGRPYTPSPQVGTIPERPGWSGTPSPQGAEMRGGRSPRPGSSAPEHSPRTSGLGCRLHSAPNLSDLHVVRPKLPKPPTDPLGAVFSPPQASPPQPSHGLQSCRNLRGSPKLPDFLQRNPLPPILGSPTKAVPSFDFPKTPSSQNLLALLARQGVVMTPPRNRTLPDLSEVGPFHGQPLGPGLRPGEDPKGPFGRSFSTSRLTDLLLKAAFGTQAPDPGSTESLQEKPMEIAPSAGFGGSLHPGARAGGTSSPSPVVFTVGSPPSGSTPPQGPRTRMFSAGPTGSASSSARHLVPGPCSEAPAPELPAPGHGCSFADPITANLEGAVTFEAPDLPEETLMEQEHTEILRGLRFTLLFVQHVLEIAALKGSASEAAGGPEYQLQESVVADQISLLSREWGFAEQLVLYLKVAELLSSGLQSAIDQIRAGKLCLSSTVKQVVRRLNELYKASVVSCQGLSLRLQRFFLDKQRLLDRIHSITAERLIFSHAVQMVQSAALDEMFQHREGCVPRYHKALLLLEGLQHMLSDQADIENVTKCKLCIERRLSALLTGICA
Kind of assay: ULK1 NanoBRET assay. It is filed as cell-based. The note with it: HEK293T transfected with NanoLuc-ULK1 Fusion Vector, Tracer K-5, 2 h incubation. The method, then:
IC50s were also measured by ULK1 NanoBRET assay according to the following protocol: Human embryonic kidney cells (HEK293T) were transfected with NanoLuc®-ULK1 Fusion Vector (Promega #NV2211) using jetPRIME transfection reagent (Polyplus Transfection #114-15). Following 24 h, cells were trypsinized and resuspended in Opti-MEM® I (1×), Reduced Serum Medium (Gibco, #11058-021). Approximately, 7,000 cells per well (in 34 μL total volume) were replated into non-binding surface 384 well plates. Complete NanoBRET 20× Tracer K-5 reagent was prepared according to the manufacturer's directions and 2 μL were added to each well of the 384 plate (assay plate). The assay plate was mixed on an orbital shaker for 15 seconds at 700 rpm. Compounds were serially diluted at 200× final concentration in […], then diluted to 10× final concentration in assay media (Opti-MEM® I, Reduced Serum Medium). Next, 4 μL 10× test compounds were added to each well of the assay plate, followed by mixing at 700 rpm for 15 seconds. The assay plate was incubated for 2 h in a 37 C incubator with […] and then equilibrated to RT for 15 min. The 3× Complete Substrate plus Inhibitor Solution was prepared according to the manufacturer's directions with a concentration of Extracellular NanoLuc® Inhibitor of 60 μM to be used at a working concentration of 20 μM. The 3× Complete Substrate plus Inhibitor Solution was mixed and 20 μL per well was added to the assay plate and incubated at RT for 2-3 min. Donor emission wavelength (450 nm) and acceptor emission wavelength (610 nm) were measured using an assay compatible luminometer (see manufacturer's specifications).

Usually IC50 stands for the concentration that gives 50% inhibition. Take `CNC(=O)c1ccc2cc1Nc1nc(ncc1C(F)(F)F)Nc1ccc(c(OC)c1)OC/C=C\CCCO2` [Compound 16, (Z)-5^3-methoxy-N-methyl-3^5-(trifluoromethyl)-6,13-dioxa-2,4-diaza-3(4,2)-pyrimidina-1(1,3),5(1,4)-dibenzenacyclotridecaphan-8-ene-1^6-carboxamide]: the IC50 in assay [1] is over 20 nM; in assay [2], over 1000 nM.
For `CNC(=O)c1ccc2cc1Nc1nc(ncc1C(F)(F)F)Nc1ccc(c(OC)c1)OCCCCCCO2` [Compound 17, 5^3-Methoxy-N-methyl-3^5-(trifluoromethyl)-6,13-dioxa-2,4-diaza-3(4,2)-pyrimidina-1(1,3),5 (1,4)-dibenzenacyclotridecaphane-16-carboxamide], the values for the IC50 in assay [1] and in assay [2] were over 20 nM and over 1000 nM, respectively.
As to `CNC(=O)c1cc2ccc1Nc1nc(ncc1C(F)(F)F)Nc1ccc(OC)c(c1)OC/C=C/CCCO2` [Compound 18, (E)-1^4-methoxy-N-methyl-3^5-(trifluoromethyl)-6,13-dioxa-2,4-diaza-3(2,4)-pyrimidina-1(1,3),5(1,4)-dibenzenacyclotridecaphan-10-ene-5^2-carboxamide], the concentration for half-maximal inhibition (IC50) in assay [1] is under 20 nM; in assay [2], over 1000 nM.
For `CNC(=O)c1cc2ccc1Nc1nc(ncc1C(F)(F)F)Nc1ccc(OC)c(c1)OC/C=C\CCCO2` [Compound 19, (Z)-1^4-methoxy-N-methyl-3^5-(trifluoromethyl)-6,13-dioxa-2,4-diaza-3(2,4)-pyrimidina-1(1,3),5(1,4)-dibenzenacyclotridecaphan-10-ene-5^2-carboxamide] the same measures were under 20 nM and under 1000 nM.
As to `CNC(=O)c1cc2ccc1Nc1nc(ncc1C(F)(F)F)Nc1ccc(OC)c(c1)OCCCCCCO2` [Compound 20, 1^4-Methoxy-N-methyl-3^5-(trifluoromethyl)-6,13-dioxa-2,4-diaza-3(2,4)-pyrimidina-1(1,3),5 (1,4)-dibenzenacyclotridecaphane-52-carboxamide], the 50% inhibitory concentration (IC50) in assay [1] was under 20 nM; in assay [2], over 1000 nM.
As to `CNC(=O)c1ccc2cc1Nc1nc(ncc1C(F)(F)F)Nc1ccc(OC)c(c1)OC/C=C\CCO2` [Compound 21, (E)-1^4-methoxy-N-methyl-3^5-(trifluoromethyl)-6,12-dioxa-2,4-diaza-3(2,4)-pyrimidina-1,5(1,3)-dibenzenacyclododecaphan-9-ene-5^6-carboxamide], the 50% inhibitory concentration (IC50) in assay [1] is over 20 nM; in assay [2], over 1000 nM.
With `CNC(=O)c1ccc2cc1Nc1nc(ncc1C(F)(F)F)Nc1ccc(OC)c(c1)OC/C=C/CCO2` [Compound 22, (Z)-1^4-methoxy-N-methyl-3^5-(trifluoromethyl)-6,12-dioxa-2,4-diaza-3(2,4)-pyrimidina-1,5(1,3)-dibenzenacyclododecaphan-9-ene-5^6-carboxamide], the figures for the IC50 in assay [1] and in assay [2] were over 20 nM and over 1000 nM, respectively.
With `CNC(=O)c1ccc2cc1Nc1nc(ncc1C(F)(F)F)Nc1ccc(OC)c(c1)OCCCCCO2` [Compound 23, 1^4-methoxy-N-methyl-3^5-(trifluoromethyl)-6,12-dioxa-2,4-diaza-3(2,4)-pyrimidina-1,5(1,3)-dibenzenacyclododecaphane-5^6-carboxamide], the 50% inhibitory concentration (IC50) is over 20 nM in assay [1] and over 1000 nM in assay [2].
On to `CNC(=O)c1ccc2cc1Nc1nc(ncc1C(F)(F)F)Nc1ccc(c(OC)c1)OC/C=C/CCO2` [Compound 24, (E/Z)-5^3-Methoxy-N-methyl-3^5-(trifluoromethyl)-6,12-dioxa-2,4-diaza-3(4,2)-pyrimidina-1(1,3),5(1,4)-dibenzenacyclododecaphan-8-ene-1^6-carboxamide], for which the half-maximal inhibitory concentration (IC50) in assay [1] is over 20 nM; in assay [2] it was over 1000 nM.
For `CNC(=O)c1ccc2cc1OCCCCCOc1ccc(cc1OC)Nc1ncc(C(F)(F)F)c(n1)N2` [Compound 25, 5^3-Methoxy-N-methyl-3^5-(trifluoromethyl)-6,12-dioxa-2,4-diaza-3(4,2)-pyrimidina-1(1,3), 5(1,4)-dibenzenacyclododecaphane-1^6-carboxamide], the IC50 is over 20 nM in assay [1] and over 1000 nM in assay [2].
